Results reported in PMC6917776, “Discovery of a chemical probe for PRDM9” (Nature Communications, 2019).
Where “and” joins values, the source holds several entries; their conditions need not be identical. Equal entries are not always repeated.

System: H3K4me3 at known PRDM9 binding loci and control TSS loci
Assay: ChIP-qPCR of H3K4me3 in PRDM9-transfected HEK293T cells
Format: cell-based, human
Conditions: Antibody H3K4me3; for 2^-dCq / dCq (IP-Input) / Cq: Figure 7 Replicate 2; for 2^-dCq (H3K4me3 IP relative to H3 IP): ChIP-qPCR Replicate 1; for Cq: ChIP-qPCR single well; for 2^-dCq (H3K4me3 ChIP relative to H3 ChIP): Replicate 1
Method: ChIP-qPCR assays were then conducted on known PRDM9 binding loci[26]. Ectopic expression of PRDM9^WT increased trimethylation of H3K4 (H3K4me3) at previously described PRDM9-specific intragenic and intergenic regions[26] (Fig. 7; Supplementary Fig. 12). […] The observed increases in H3K4me3 levels at intragenic and intergenic regions are therefore due directly to PRDM9 PR domain-dependent methylation activity, rather than through recruitment of other H3K4 methyltransferases or other indirect mechanisms.
ChIP qPCR analyses of H3K4me3 methylation levels of known PRDM9-bound loci and control loci. […] Concentrations used (µM) are indicated below each plot. (a–d) represent reported loci of PRDM9 methylation; (e, f) are transcriptional start sites (TSSs) which are not known loci of PRDM9 methylation. Data are normalized to total H3 and are presented as the mean ± upper and lower limits from two replicates. Representative plots of two independent experiments are shown in this figure. The coordinates and the genomic features associated with the assayed loci are indicated above each plot. Left Tailed Student's t-tests were performed by comparing DMSO (0 µM) treated cells to compound treated cells that have been transfected with the same plasmids. *p-value < 0.05 and **p-value < 0.01. Note that here we show a representative of two independent experiments (mean ± s.d of technical replicates) for our ChIP-qPCR experiments. Data obtained using this technique are inherently noisy due to stochastic differences in gene activity/histone positioning. Data are thus typically presented as representative rather than averaged. Source data are provided as a Source Data file.
HEK293T cells were transfected with 37.5 μg empty pcDNA3.1(+) vector (Invitrogen), or the same vector expressing either wild-type PRDM9 (PRDM9^WT) or a catalytically dead PRDM9 mutant (PRDM9^Mut) and 75 μL of Lipofectamine 2000 (Invitrogen) in 6 mL of Opti-MEM (GIBCO) for 48 h. […] ChIP assays were then performed as previously described. Briefly, cells were fixed in 1% formaldehyde and the fixation reaction was quenched in a final concentration of 0.1 M glycine. Cell pellets were first lysed in LB1 (50 mM HEPES-KOH pH 7.5, 140 mM NaCl, 1 mM EDTA, 10% Glycerol, 0.5% Igepal, 0.25% TritonX), washed once in LB2 Buffer (10 mM Tris-HCl pH 8, 200 mM NaCl, 1 mM EDTA, 0.5 mM EGTA) and finally sonicated in LB3 buffer (10 mM Tris-HCl pH 8, 100 mM NaCl, 1 mM EDTA, 0.5 mM EGTA, 0.1% Sodium deoxycholate, 0.5% N-laurosylsarcosine) using a bioruptor (Diagenode). Thereafter, 50 μg of chromatin was subjected to ChIP using the following antibodies purchased from Abcam: α-H3K4me3 (1:200, ab8580, lot:GR3207339-1) and α-H3 (1:250, ab1791, lot:GR300978-4). After extensive washing in RIPA wash buffer (50 mM HEPES-KOH pH 7.6, 100 mM LiCl, 1 mM EDTA, 1% Igepal, 0.7% Sodium Deoxycholate), DNA was eluted from beads. The eluted DNA was treated with RNase A and Proteinase K and purified using the QIAGEN PCR purification kit. qPCR was then carried out targeting the indicated loci (Supplementary Table 3). Upper and lower limits were defined by |2^−(dCq±s) − 2^−(∆Cq)|, where s = √((Standard deviation of Input Cq)^2 + (Standard deviation of Target Cq)^2). […]
formation. ChIP qPCR analyses of H3K4me3 methylation levels at known PRDM9-bound and control loci. Cells transfected with empty vector (negative control) or vectors overexpressing either wild-type PRDM9 (PRDM9 WT) or catalytically dead PRDM9 (PRDM9 MUT) were […]
Panels a-d represent reported loci of […]
(1 picture or pasted object on this page, not shown here)
PRDM9 methylation; e-f are TSSs which are not known sites of PRDM9 methylation. Data are normalized to total H3 and are presented as the mean ± upper and lower limits from two […]

[1] = Plasmid PRDM9WT, Drug Conc. 2.5

## COc1cc(OC)cc(-c2noc(N3CCN(C)C4(CCN(c5ccnc(C)c5)CC4)C3)n2)c1 [MRK-740]
[1]
  2^-dCq: 68.6717
  dCq (IP-Input): -6.102
  Cq: 20.9173
Plasmid PRDM9WT, Drug Conc. 5
  2^-dCq: 143.684
  dCq (IP-Input): -7.167
  Cq: 20.8427 and 20.8648
Plasmid PRDM9WT, Drug Conc. 10
  2^-dCq: 36.5414
  dCq (IP-Input): -5.191
  Cq: 21.3604 and 21.0972
Figure 7 E chr12:6643945-6644023 TSS (GAPDH), Plasmid Empty Vector, Drug Conc. 2.5
  2^-dCq (H3K4me3 IP relative to H3 IP): 42.6349
Figure 7 E chr12:6643945-6644023 TSS (GAPDH), Plasmid Empty Vector, Drug Conc. 5
  2^-dCq (H3K4me3 IP relative to H3 IP): 95.4581
Figure 7 E chr12:6643945-6644023 TSS (GAPDH), Plasmid Empty Vector, Drug Conc. 10
  2^-dCq (H3K4me3 IP relative to H3 IP): 117.266
Figure 7 E chr12:6643945-6644023 TSS (GAPDH), Plasmid PRDM9WT, Drug Conc. 2.5
  2^-dCq (H3K4me3 IP relative to H3 IP): 25.3027
Figure 7 E chr12:6643945-6644023 TSS (GAPDH), Plasmid PRDM9WT, Drug Conc. 5
  2^-dCq (H3K4me3 IP relative to H3 IP): 32.9385
Figure 7 E chr12:6643945-6644023 TSS (GAPDH), Plasmid PRDM9WT, Drug Conc. 10
  2^-dCq (H3K4me3 IP relative to H3 IP): 45.6823
Figure 7 F chr19:8510167-8510261 TSS (HNRNPM), Plasmid Empty Vector, Drug Conc. 2.5
  2^-dCq (H3K4me3 IP relative to H3 IP): 71.0331
Figure 7 F chr19:8510167-8510261 TSS (HNRNPM), Plasmid Empty Vector, Drug Conc. 5
  2^-dCq (H3K4me3 IP relative to H3 IP): 77.1794
Figure 7 F chr19:8510167-8510261 TSS (HNRNPM), Plasmid Empty Vector, Drug Conc. 10
  2^-dCq (H3K4me3 IP relative to H3 IP): 127.571
Figure 7 F chr19:8510167-8510261 TSS (HNRNPM), Plasmid PRDM9WT, Drug Conc. 2.5
  2^-dCq (H3K4me3 IP relative to H3 IP): 23.4419
Figure 7 F chr19:8510167-8510261 TSS (HNRNPM), Plasmid PRDM9WT, Drug Conc. 5
  2^-dCq (H3K4me3 IP relative to H3 IP): 34.0456
Figure 7 F chr19:8510167-8510261 TSS (HNRNPM), Plasmid PRDM9WT, Drug Conc. 10
  2^-dCq (H3K4me3 IP relative to H3 IP): 45.2017
Figure 7 A, chr2:128811847-128811944 (Intergenic), Plasmid Empty Vector, Drug Conc. 2.5
  2^-dCq (H3K4me3 ChIP relative to H3 ChIP): 0.4418
Figure 7 A, chr2:128811847-128811944 (Intergenic), Plasmid Empty Vector, Drug Conc. 5
  2^-dCq (H3K4me3 ChIP relative to H3 ChIP): 0.3019
Figure 7 A, chr2:128811847-128811944 (Intergenic), Plasmid Empty Vector, Drug Conc. 10
  2^-dCq (H3K4me3 ChIP relative to H3 ChIP): 0.3892
Figure 7 A, chr2:128811847-128811944 (Intergenic), Plasmid PRDM9WT, Drug Conc. 2.5
  2^-dCq (H3K4me3 ChIP relative to H3 ChIP): 1.223
Figure 7 A, chr2:128811847-128811944 (Intergenic), Plasmid PRDM9WT, Drug Conc. 5
  2^-dCq (H3K4me3 ChIP relative to H3 ChIP): 0.9838
Figure 7 A, chr2:128811847-128811944 (Intergenic), Plasmid PRDM9WT, Drug Conc. 10
  2^-dCq (H3K4me3 ChIP relative to H3 ChIP): 1.179
Figure 7 B, chr8:49932778-49932856 (Intergenic), Plasmid Empty Vector, Drug Conc. 2.5
  2^-dCq (H3K4me3 ChIP relative to H3 ChIP): 0.3289
Figure 7 B, chr8:49932778-49932856 (Intergenic), Plasmid Empty Vector, Drug Conc. 5
  2^-dCq (H3K4me3 ChIP relative to H3 ChIP): 0.2554
Figure 7 B, chr8:49932778-49932856 (Intergenic), Plasmid Empty Vector, Drug Conc. 10
  2^-dCq (H3K4me3 ChIP relative to H3 ChIP): 0.5965
Figure 7 B, chr8:49932778-49932856 (Intergenic), Plasmid PRDM9WT, Drug Conc. 2.5
  2^-dCq (H3K4me3 ChIP relative to H3 ChIP): 4.659
Figure 7 B, chr8:49932778-49932856 (Intergenic), Plasmid PRDM9WT, Drug Conc. 5
  2^-dCq (H3K4me3 ChIP relative to H3 ChIP): 2.677
Figure 7 B, chr8:49932778-49932856 (Intergenic), Plasmid PRDM9WT, Drug Conc. 10
  2^-dCq (H3K4me3 ChIP relative to H3 ChIP): 2.675
